Read-outs that look alike come from different tables or passages of the source. One block for each molecule: values may come before it.
Assays:
[1] = test system: HEK-FAP cells; assay: Fluorescence microscopy of cellular internalization and retention in HEK-FAP cells; type: cell-based, human; settings: 5 nM for 1 h at 37 °C, then compound-free medium up to 72 h
Experimental: HEK-FAP cells were seeded on chamber slides (ibidi) and incubated with 5 nM of AF488-labeled FAP-2286 or FAPI-46 for 1 h at 37 °C. Cells were then washed and further incubated for various timepoints. Cell nuclei were stained with 1 µg/mL Hoechst 33342 dye. Lysosomes were stained using LysoTracker Deep Red (Thermo Fisher Scientific). Images were acquired by using the BZ X800E fluorescence microscope (Keyence) at 40 × magnification.
For fluorescence microscopy assay, HEK-FAP cells were seeded in Poly-D-Lysine-coated 8-well chamber slides at 1 x 10^5 cells per well and incubated for 3 days at 37°C, 5% CO2 in a humified incubator. Attached cells were incubated for 1 hour with 5 nM AF488-labeled FAP-2286 or FAPI-46 in incubation buffer at 37°C. For visualization of lysosomes and late endosomes, cells were stained with LysoTracker DeepRed (Thermo Fisher) for 30 minutes at 37 °C.
Cells were washed three times and incubation buffer was added. Following various incubation periods, cells were washed with HBSS and incubated for 5 min with 1 µg/mL Hoechst 33342 dye for nuclei counterstaining at room temperature.
Fluorescence images were acquired by using a Keyence BZ-X800E fluorescence microscope with 40x magnification.

[2] = test system: Sarc4809 PDX; assay: Efficacy study in the Sarc4809 sarcoma PDX model; type: in vivo, mouse; settings: 30 MBq single IV dose, Sarc4809 mice
Experimental: (§1) HEK-FAP cell line was generated using the vector pTAR to insert FAP complementary DNA by recombinase-mediated cassette exchange into the pre-tagged HEK293 cells (InSCREENeX). For in vivo HEK-FAP studies, female nude or SCID beige mice (Charles River Laboratories) were subcutaneously implanted with 5 × 10^6 HEK-FAP cells in 150 µL serum-free media:Matrigel (1:1) (Corning). For the patient-derived xenograft (PDX) efficacy study, female NMRI nu/nu mice (Janvier Labs) were subcutaneously implanted with Sarc4809 fragments (Experimental Pharmacology & Oncology Berlin-Buch). All animal experiments were carried out under licenses approved by the respective authorities and in compliance with guidelines on animal welfare.
A single dose of the indicated treatments was administered IV on day 0, with vehicle (saline), nonradioactive ^natLu-FAP-2286, 30 or 60 MBq ^177Lu-FAP-2286 (30 MBq/nmol and 60 MBq/nmol, respectively), or 30 MBq ^177Lu-FAPI-46 (30 MBq/nmol). Tumor length and width were measured by caliper, and tumor volume was calculated as 0.5 × (length × width^2). Tumor growth and body weight were monitored 3 times weekly. […]
Calculation of relative tumor volume. Relative tumor volume (RTV as %) is calculated according to the following formula: RTV = (Tᵢ/ T0) × 100, where Tᵢ is the tumor volume at day i and T0 is the tumor volume at day 0. […]

[3] = test system: neoplastic lesions; set-up: method as in PMID 34168013; settings: first-in-human experience of 11 patients ref 51; cited from earlier work
[4] = test system: HEK-FAP xenografts; assay: SPECT/CT biodistribution and tumor dosimetry of 177Lu-labeled tracers in HEK-FAP tumor-bearing mice; type: in vivo, mouse
Experimental: as §1
(§2) Thirty megabecquerels (30 MBq/nmol) ^111In-FAP-2286 (n = 9) or ^111In-FAPI-04 (n = 6) was injected intravenously (IV) into HEK-FAP tumor-bearing mice and the distribution of the radiotracers was assessed using the NanoSPECT/computed tomography (CT) system (Mediso). For PET imaging, 10 MBq of ^68Ga-FAP-2286 or ^68Ga-FAPI-46 (10 MBq/nmol) was given IV into HEK-FAP tumor-bearing mice (n = 3) followed by PET/CT analysis using the nanoScan PET/CT system (Mediso). For SPECT imaging of ^177Lu-labeled FAP-2286 or ^177Lu-labeled FAPI-46, 30 MBq was administered IV (30 MBq/nmol; n = 3) and the distribution of the radiotracers was assessed using the nanoScan SPECT/CT system (Mediso).
(§3) The animal studies were conducted in different laboratories. ^111In-Imaging and efficacy studies using the HEK-FAP model and different doses of ^177Lu-FAP-2286 as well as the Sarc4809 PDX efficacy study took place at Berlin Experimental Imaging Center (BERIC, Germany). The Sarc4809 model was originally derived from a primary lesion of undifferentiated pleomorphic sarcoma. These studies were performed in either female swiss nude (Charles River Laboratories, France – ^111In-Imaging), NMRI nude (Janvier Labs, France – PDX efficacy study) or SCID beige mice (Charles River Laboratories, Germany - ^111In-Imaging). ^68Ga-Imaging and comparative studies with ^177Lu labeled FAP-2286 and FAPI-46 were performed at Minerva Imaging ApS, Denmark using female athymic nude mice (Charles River Laboratories, Germany). For all experiments animals were ordered with an age of approximately 6 weeks. Animals were allowed an acclimatization period of at least one week prior to inoculation. Animals were housed in an animal room with 12 hours light and 12 hours darkness with free access to food and water. A maximum number of 5 animals were housed in the same cage, cages were equipped with nesting material and plastic or paper houses for hiding. Each cage was labeled with study ID, group and animal numbers and test compound. For efficacy studies animals were randomized according to tumor size. Animals were checked daily for any signs of illness or abnormal behavior. Main humane endpoints were defined as tumor volumes > 1500 mm^3, tumor burden > 10% of animal weight, body weight loss >15% and tumor ulceration. When reaching one of these criteria the animal was sacrificed by cervical dislocation. All animal experiments were approved either by the Regional Office for Health and Social Affairs Berlin (LAGeSo), Germany or the National Animal Experiments Inspectorate under the Ministry of Environment and Food of Denmark.
(§4) Imaging and image analysis were performed as described. During the scan, mice were kept under isoflurane anesthesia, and body temperature was maintained under warm air. The following acquisition parameters were used for the respective imaging modality.
(§5) For quantification, VivoQuant (InviCRO) was used to draw regions of interest (ROIs) in relevant tissues, with a ROI drawn over the left ventricle of the heart to serve as blood pool surrogate. […]

[5] = as above; type: in vivo, mouse; settings: mouse, in vivo, iv, 30 MBq IV, HEK-FAP mice; for tissue uptake at 72 h: 72 h p.i.
Experimental: as §1, §2, §3, §4, §5

[6] = test system: HEK-FAP xenograft tumors; assay: SPECT/CT biodistribution of 111In-labeled tracers in HEK-FAP tumor-bearing mice; type: in vivo, mouse; settings: every 24 h; HEK-FAP mouse tumor model; 111In-FAPI-04 (Supplementary Fig. S6)
Experimental: as §1, §2, §3, §4, §5

SMILES: CCCCCC(=O)N[C@H]1CSCc2cc(CSCCNC(=O)CN3CCN(CC(=O)O)CCN(CC(=O)O)CCN(CC(=O)O)CC3)cc(c2)CSC[C@@H](C(=O)N[C@@H](CCCCNC(=O)c2ccc(-c3c4ccc(=N)c(S(=O)(=O)O)c-4oc4c(S(=O)(=O)O)c(N)ccc34)c(C(=O)O)c2)C(N)=O)NC(=O)[C@H](Cc2ccccc2)NC(=O)[C@H](CCC(N)=O)NC(=O)[C@H]([C@@H](C)O)NC(=O)[C@@H]2CCCN2C(=O)[C@@H]2CCCN2C1=O [AF488-FAP-2286]
cellular retention by fluorescence microscopy [1]: retained in HEK-FAP cells and secluded in endosomes out to 72 h

Max. BWL, Day 2 [2]: 3%
tumor retention ([4]; HEK-FAP mouse model, SPECT/CT image quantification): ≥ 72 h
tumor absorbed dose ([4]; HEK-FAP tumor self-dose): 2.8 Gy/MBq
time-integrated activity coefficient (TIAC), tumor ([4]; HEK-FAP tumor, calculated from SPECT/CT, extrapolated beyond 72 h): 11.2 MBq*h/MBq
tissue uptake at 3 h ([5]; 3 h after injection, read-out: kidney accumulation): 2.2 %ID/g
tissue uptake at 3 h ([5]; 3 h p.i., n=3, read-out: tumor uptake): 21.1 %ID/g
tissue uptake at 72 h ([5]; n=3, read-out: tumor uptake): 16.4 %ID/g
tissue uptake at 72 h ([5]; read-out: kidney accumulation): 0.6 %ID/g
SMILES: CCCCCC(=O)N[C@H]1CSCc2cc(CSCCNC(=O)CN3CCN(CC(=O)O)CCN(CC(=O)O)CCN(CC(=O)O)CC3)cc(c2)CSC[C@@H](C(=O)O)NC(=O)[C@H](Cc2ccccc2)NC(=O)[C@H](CCC(N)=O)NC(=O)[C@H]([C@@H](C)O)NC(=O)[C@@H]2CCCN2C(=O)[C@@H]2CCCN2C1=O [^177Lu-FAP-2286, metal not drawn]
SPECT/CT biodistribution in patients [3]: significant tumor uptake and long retention

tumor clearance rate [6]: approximately 50%
SMILES: N#C[C@@H]1CC(F)(F)CN1C(=O)CNC(=O)c1ccnc2ccc(OCCCN3CCN(C(=O)CN4CCN(CC(=O)O)CCN(CC(=O)O)CCN(CC(=O)O)CC4)CC3)cc12 [FAPI-04, reference compound]

Source: PMC9399058, “Preclinical evaluation of FAP-2286 for fibroblast activation protein targeted radionuclide imaging and therapy” (European Journal of Nuclear Medicine and Molecular Imaging, 2022)
